Assay results published in PubChem BioAssay AID1552 (Sanford-Burnham Center for Chemical Genomics, 2009).
Calls of active or inactive are those of the source. No rule for the calls is given here.

What follows are compounds tested against Ubiquitin-conjugating enzyme E2 N (Homo sapiens) (UniProt P61088) (assay: NMR detection of UBE2N ligand binding – biophysical, purified protein (AID 1552)). Conditions: NMR binding to purified UBE2N.
Chain of Ubiquitin-conjugating enzyme E2 N (Homo sapiens) (P61088 whole entry, looked up): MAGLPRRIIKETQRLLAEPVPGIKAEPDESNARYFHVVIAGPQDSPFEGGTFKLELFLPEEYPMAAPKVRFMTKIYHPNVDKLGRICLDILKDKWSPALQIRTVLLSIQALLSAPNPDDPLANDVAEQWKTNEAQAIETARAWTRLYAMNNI

SMILES	Kd
COc1ccc2c(c1)OC[C@@H](Cc1ccc(OC)c(OC)c1)[C@@H]2O	> 4 mM (inactive)
Cc1cc(C(=O)Nc2sc(C)c(C)c2C#N)no1	> 4 mM (inactive)
COc1c(O)cc2c(c1O)[C@H]1O[C@H](CO)[C@@H](O)[C@H](O)[C@@H]1OC2=O	> 4 mM (inactive)
Cc1cccc(N2C(=O)CC(=O)NC2=O)c1	> 4 mM (inactive)
O=C(O)CCS(=O)(=O)c1ccccc1	> 4 mM (inactive)
NCc1ccc(-n2cccc2)cc1	> 4 mM (inactive)
CCOC(=O)C1C(=O)C2CCN1CC2 (stereo not drawn)	> 4 mM (inactive)
COc1ccc(-c2noc(-c3ccco3)n2)cc1OC	> 4 mM (inactive)
O=C(Nc1ccc(O)cc1)N1CCOCC1	> 4 mM (inactive)
OC[C@H]1O[C@@H](n2cnc3c(NCc4ccco4)ncnc32)[C@H](O)[C@@H]1O	> 4 mM (inactive)
CC(=O)OC1CCC23CC1(C)CCC2C(C)(C)CC3OC(C)=O (stereo not drawn)	> 4 mM (inactive)
O=c1n(-c2cccc(Cl)c2)c(=O)n2n1CCC2	> 4 mM (inactive)
CC(=O)Oc1ccc(-c2cc(=O)c3c(OC(C)=O)cc(OC(C)=O)cc3o2)cc1	> 4 mM (inactive)
c1ccc(-c2nsc(N3CCNCC3)n2)cc1	> 4 mM (inactive)
COc1ccc2c(c1)OC1(O)COc3cc(OC)c(OC)cc3C1=C2 (stereo not drawn)	> 4 mM (inactive)
Cc1cccc(NC(=O)NC(N)=O)c1	> 4 mM (inactive)
NC(=S)NC1CCS(=O)(=O)C1 (stereo not drawn)	> 4 mM (inactive)
C[C@H]1O[C@@H](O[C@H]2[C@@H](O)C[C@H](O[C@H]3[C@@H](O)C[C@H](O[C@H]4CC[C@]5(C)C6C[C@@H](O)[C@]7(C)[C@@H](C8=CC(=O)OC8)CC[C@]7(O)C6CC[C@@H]5C4)O[C@@H]3C)O[C@@H]2C)C[C@H](O)[C@@H]1O (stereo partly drawn)	> 4 mM (inactive)
COc1c2ccccc2nc2occc12	> 4 mM (inactive)
Cc1nc(-c2cccc(C(=O)O)c2)cs1	> 4 mM (inactive)
N#CCSc1nc(-c2ccccc2)cs1	> 4 mM (inactive)
O=c1c(-c2ccc(O)cc2)coc2cc(O)ccc12	> 4 mM (inactive)

SMILES	Kd
CS(=O)(=O)c1cccc(C(=O)Nc2nccs2)c1	> 4 mM (inactive)
O=C(O)CCC(=O)c1cccc2ccccc12	> 4 mM (inactive)
CCC(=O)Nc1cc(C(C)C)c(O)cc1C	> 4 mM (inactive)
O=C(O)C1CN2CCC1CC2 (stereo not drawn)	> 4 mM (inactive)
Cc1cc(C(=O)NC(C)c2ccncc2)no1 (stereo not drawn)	> 4 mM (inactive)
O=S(=O)(c1ccc(F)c(Cl)c1)N1CCCC1	> 4 mM (inactive)
NC(=O)C1CCN(C(=S)c2cccs2)CC1	> 4 mM (inactive)
CCN(CC)C(=O)c1n[nH]c(=O)c2ccccc12	> 4 mM (inactive)
CC(=O)Nc1ccc2c(c1)C(=O)N(C1CCCCC1)C2=O	> 4 mM (inactive)
CC1=C(/C=C/C(C)=C/C=C/C(C)=C/C=C/C=C(C)/C=C/C=C(C)/C=C/C(=O)[C@]2(C)C[C@@H](O)CC2(C)C)C(C)(C)C[C@H](O)C1	> 4 mM (inactive)
O=C(O)c1ccc2c(c1)OCO2	> 4 mM (inactive)
Cc1c(C(=O)OC(C)C)[nH]c2c1C(=O)CCC2	> 4 mM (inactive)
C[C@@H]1CC[C@@]2(OC1)O[C@H]1CC3C4CC[C@H]5C[C@@H](O)CC[C@]5(C)C4CC[C@]3(C)[C@H]1[C@@H]2C (stereo partly drawn)	> 4 mM (inactive)
CC[C@H]1CN2CCc3cc(OC)c(OC)cc3C2C[C@@H]1CC1NCCc2cc(OC)c(OC)cc21 (stereo partly drawn)	> 4 mM (inactive)
Cc1cc(C)nc(N2CC(=O)N(C)C2=N)n1	> 4 mM (inactive)
CN(C)C(=O)C12CCC(C)(C(=O)O1)C2(C)C (stereo not drawn)	> 4 mM (inactive)
COc1cccc(=O)c2c(C)n(C)c(C)c12	> 4 mM (inactive)
CN1CCN(C(=O)Nc2cccc3ccccc23)CC1	> 4 mM (inactive)
CCOC(=O)c1nc2ccccc2c(=O)n1N	> 4 mM (inactive)
CCS(=O)(=O)N1CCN(c2ccccc2F)CC1	> 4 mM (inactive)
OCc1cccs1	> 4 mM (inactive)
